# In patent US8895079B2, “Combinations of botanical extracts for promoting cardiovascular health” (National Research Council of Canada, priority 2005, dated 2014):
# Marks after values point to notes of the source that are not given here.
# Tests used:
# [1] = Example 1: weekly body weight and daily feed intake; assay type: in vivo, Male Golden Syrian hamsters; conditions: Example 1, weekly body weight over 4 weeks, FIG. 5
# Procedure: Male Golden Syrian Hamsters were purchased from Charles River Co. housed individually in cages for two weeks prior to the commencement of the study. During this adjustment period, animals were fed with regular rodent chow diet with free access to both food and water. A total of 60 hamsters were weighed and randomly assigned to one of four groups of 15 animals each. Animals are subjected to a temperature-controlled environment with a 12:12 h light/dark cycle. Each group was fed with one of the four isocaloric experimental diets for a 4 week period. […] During the course of the experiment, animals were weighed weekly and food consumption was determined on a daily basis over the course of the experiment. During the course of the experiment, data were obtained with regard to food consumption and bodyweight so that the dose of BBRCI was maintained on a mg/kg basis as the animals grew over the 4 weeks experimental period. […] This may have important implications on weight control, healthy weight management strategies, and body composition (increase lean body mass) in humans and animals. […] Thereafter, significant differences in food intake was observed from days 22-25 but this effect disappeared during days 25-28 as a small surgical intervention was performed on each animal on day 25 on the neck area of the animal, which reduced food consumption in each treatment. […]
# intestinal ABCG5 mRNA = experiment: Example 1: intestinal ABCG5 mRNA expression, real-time PCR; assay type: in vivo, Male Golden Syrian hamsters; conditions: intestine; relative expression in reference to a housekeeping gene; Example 1, 4 weeks
# Procedure: Experiments were also conducted to determine the effect on the expression of genes associated with cholesterol in the liver and intestine. Total RNA was extracted and mRNA was converted to cDNA. The mRNA expression was measured by real-time PCR with four repeats and calculated as relative expression in reference to internal control of a housekeeping gene for each sample. […] The function of ABCG5 and ABCG8 in the intestine is to transport cholesterol out of enterocytes and back to the intestine for elimination via the feces. […] The observation of our study (Example 1) has provided a strong support to the synergistic action of BBRCI and PS on cholesterol reduction.
# [2] = system: liver HMG-CoA reductase mRNA; experiment: Example 1: liver HMG-CoA reductase mRNA expression, real-time PCR; assay type: in vivo, Male Golden Syrian hamsters; conditions: relative expression in reference to a housekeeping gene, Example 1, 4 weeks
# Procedure: Experiments were also conducted to determine the effect on the expression of genes associated with cholesterol in the liver and intestine. Total RNA was extracted and mRNA was converted to cDNA. The mRNA expression was measured by real-time PCR with four repeats and calculated as relative expression in reference to internal control of a housekeeping gene for each sample. Table 5 and FIG. 8a summarize the effect of BBRCI and PS alone or in combination on liver HMG-CoA reductase. […] HMG-CoA reductase is a rate-limiting enzyme in cholesterol biosynthesis. […] When a strong action occurs on cholesterol reduction through inhibiting cholesterol absorption, cholesterol biosynthesis is increased as compensatory response to the cholesterol loss due to the reduced absorption. The powerful synergistic action of BBRCI and PS on HMG-CoA reductase mRNA expression implies that the combination of these materials may act synergistically to reduce blood cholesterol, possibly by inhibiting cholesterol absorption.
# [3] = system: hamsters fed a diet containing 0.25% cholesterol; experiment: Example 2: tissue weight to body weight ratio; assay type: in vivo, male Golden Syrian hamsters; conditions: Example 2, 5 weeks; BBRCI 100 mg/kg·d and/or PS 1% (w/w); means±SD, n=12
# Procedure: In this example, a controlled, five week animal study was performed. A total of 48 male Golden Syrian hamsters were randomized into 4 groups of 12 and fed isocaloric diets as follows. Hamster husbandry, living and feeding conditions were similar to that used for Example 1. • Control a semi-synthetic casein-corn starch-sucrose diet that contained 0.25% (w/w) cholesterol • BBRCI control diet containing 100 mg/kg·d of BBRCI • PS control diet containing 1% (w/w) PS • BBRCI+PS control diet containing 100 mg/kg·d BBRCI and 1% (w/w) PS Table 7 summarizes the effect on tissue weight to body weight ratio (values are means±SD). Data were analyzed by one-way ANOVA followed by Tukey test when a significant treatment effect was detected. A significant difference was indicated by a p<0.05. […] The combination of BBRCI and PS (BBRCI+PS), however, reduced the average liver weight in a strong, statistically significant, and synergistic manner compared to liver weights in the BBRCI and PS groups.
# [4] = system: hamsters fed a diet containing 0.25% cholesterol; experiment: Example 3: five week hamster study, blood lipid levels, 0.25% cholesterol diet, 0.5% PS; assay type: in vivo, male Golden Syrian hamsters; conditions: BBRCI 100 mg/kg·d and/or PS 0.5% (w/w)
# Procedure: In this example, a controlled, five week animal study was performed. Four randomized groups of 12 or 6 male Golden Syrian hamsters were fed isocaloric diets as follows. The dosage of PS was reduced from 1% to 0.5% (w/w) in the diet. Hamster husbandry, living and feeding conditions were similar to that in Example 1. • Control a semi-synthetic casein-corn starch-sucrose diet that contained 0.25% (w/w) cholesterol • BBRCI control diet containing 100 mg/kg·d of BBRCI • PS control diet containing 0.5% (w/w) PS • BBRCI+PS control diet containing 100 mg/kg·d BBRCI and 0.5% (w/w) PS One objective of this example was to determine the effects of each intervention on circulating blood lipids including total cholesterol (T-C), high-density-lipoprotein cholesterol (HDL-C), nonHDL-C (which is indicative of LDL-C levels) and triglyceride (TG) profiles. Table 8 summarizes the effect on blood lipid levels (values are means±SD, n=12). Data were analyzed by one-way ANOVA followed by Tukey test if significance was detected. A significant difference was indicated by a p<0.05. […] When BBRCI and PS were given to hamsters simultaneously, significant synergistic actions were observed on […] and TG levels. A synergistic action of BBRCI and PS was also observed on the ratio of HDL-C and nonHDL-C.
# [5] = 0.25% cholesterol diet, 5 weeks, means±SD
smiles,measurement,setting,value
"COc1ccc2cc3[n+](cc2c1OC)CCc1cc2c(cc1-3)OCO2 [BBRCI, Berberine chloride]",body weight,[1],trend toward reduced body weights after two weeks
same,ABCG5 mRNA expression,intestinal ABCG5 mRNA,2.37 ± 0.70^a
same,HMG-CoA reductase mRNA expression,[2],0.98 ± 0.10^b
same,"Heart, tissue weight to body weight ratio",[3],0.37 ± 0.03
same,"Liver, tissue weight to body weight ratio",[3],4.67 ± 0.38^ab
same,"Right kidney, tissue weight to body weight ratio",[3],0.35 ± 0.03
same,nonHDL-C Concentration,"[4]; 0.25% cholesterol diet, 5 weeks",173.5 ± 66.5^ab mg/dl
same,HDL-C Concentration,[4]; [5],93.1 ± 27.1 mg/dL
same,T-C Concentration,[4]; [5],264.7 ± 49.8^a mg/dl
same,TG Concentration,[4]; [5],549.1 ± 225.3^a mg/dl
same,HDL-C % difference from Control,"[4]; Example 3, 5 weeks",1.7%
same,HDL-C/nonHDL-C % difference from Control,"[4]; Example 3, 5 weeks",29%
same,T-C % difference from Control,"[4]; Example 3, 5 weeks",−7.8%
same,TG % difference from Control,"[4]; Example 3, 5 weeks",−0.2%
same,nonHDL-C % difference from Control,"[4]; Example 3, 5 weeks",−11.1%
same,HDL-C/nonHDL-C,"[4]; ratio, 0.25% cholesterol diet, 5 weeks",0.66 ± 0.41^b
